Measured values taken from PubChem BioAssay (NCI).
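Step 1: Grow cells in 96-well plates. Step 2: Expose to compound for 48 hours at 5 concentrations. Step 3: Interpolate endpoints linearly; if unreached, use highest concentration. At the GI50, growth is halved. The concentration for full growth arrest is given as TGI.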

Assays:
Test in all cases: NCI tumour cell line growth inhibition, 48 h
[1] = test system: RPMI-8226 leukemia
[2] = test system: T-47D breast
[3] = test system: SF-268 CNS
[4] = test system: MDA-MB-435
[5] = test system: UO-31 renal
[6] = test system: HL-60(TB) leukemia
[7] = test system: MALME-3M melanoma
[8] = test system: ACHN renal
[9] = test system: COLO 205 colon
[10] = test system: OVCAR-3 ovarian
[11] = test system: A498 renal
[12] = test system: M14 melanoma
[13] = test system: UACC-62 melanoma
[14] = test system: HOP-62 NSCLC
[15] = test system: HCT-15 colon
[16] = test system: SK-MEL-5 melanoma
[17] = test system: OVCAR-5 ovarian
[18] = test system: U251 CNS
[19] = test system: HS 578T breast
[20] = test system: SR leukemia
[21] = test system: SK-MEL-28 melanoma
[22] = test system: K-562 leukemia
[23] = test system: DU-145 prostate
[24] = test system: CCRF-CEM leukemia
[25] = test system: SNB-19 CNS
[26] = test system: SNB-75 CNS
[27] = test system: SF-539 CNS
[28] = test system: BT-549 breast

C/C(=C\CCc1ccsc1)CC/C=C(\C)CCCN1CCC(CO)CC1
TGI [1]: 4.15 µM | GI50 [2]: 2.22 µM | TGI [2]: 6.03 µM | GI50 [3]: 5.06 µM | TGI [3]: 19.4 µM | GI50 [4]: 1.87 µM | TGI [4]: 3.87 µM | GI50 [5]: 2.83 µM | TGI [5]: 16 µM | GI50 [6]: 1.94 µM | TGI [6]: 3.99 µM | GI50 [7]: 1.71 µM | TGI [7]: 3.37 µM | GI50 [8]: 3.02 µM | TGI [8]: 11.5 µM | GI50 [9]: 1.92 µM | TGI [9]: 3.95 µM | GI50 [10]: 2.11 µM | TGI [10]: 4.29 µM | GI50 [11]: 1.24 µM | TGI [11]: 3.5 µM | GI50 [12]: 1.92 µM | TGI [12]: 3.73 µM | GI50 [13]: 1.81 µM | TGI [13]: 3.64 µM | GI50 [14]: 1.89 µM | TGI [14]: 3.63 µM | GI50 [15]: 1.86 µM | TGI [15]: 4.01 µM | GI50 [16]: 1.55 µM | TGI [16]: 2.95 µM | GI50 [17]: 2.77 µM | TGI [17]: 11.6 µM | GI50 [18]: 1.42 µM | TGI [18]: 3.11 µM | GI50 [19]: 2 µM | TGI [19]: 6.19 µM | GI50 [20]: 1.81 µM | TGI [20]: 4.4 µM | GI50 [21]: 1.69 µM | TGI [21]: 3.38 µM | GI50 [22]: 1.28 µM | TGI [22]: 3.41 µM | GI50 [23]: 4.69 µM | TGI [23]: 16.1 µM | GI50 [24]: 2.09 µM | TGI [24]: 4.8 µM | GI50 [25]: 2.63 µM | TGI [25]: 9.28 µM | GI50 [26]: 1.69 µM | TGI [26]: 4.56 µM | GI50 [27]: 1.69 µM | TGI [27]: 3.36 µM | GI50 [28]: 1.7 µM | TGI [28]: 3.51 µM
